For series [1], the system named is SH-SP rats with MCA permanent occlusion. Conditions: cited from earlier work.
For series [2] the following is noted: low concentrations or low doses; cited from earlier work.
Series [3] relates to gerbils with transient forebrain ischemia (hippocampal CA1 neurons). Conditions: cited from earlier work.
Series [4] has as its system Bcl-xL. Briefly: Bcl-xL expression in primary cultured myocardial cells (RT-PCR, immunoblotting). Type of series: cell-based, rat. Here is the method:
Next, we have studied effect of ginsenoside Rb1 on the heart. For that purpose, for example, changes in the expression of Bcl-xL mRNA and Bcl-xL protein were examined with RT-PCR and immunoblotting, when primary cultured myocardial cells were cultured for 18 hours in the presence of ginsenoside Rb1. Myocardial cells were prepared as follows. The hearts of fetal rats at gestational day 17 were treated with trypsin EDTA to prepare dispersed cells, which were cultured for several days in DMEM containing 10% FCS (fetal calf serum). In RT-PCR, β-actin mRNA was used as the internal standard. In the immunoblotting, troponin T, a striated muscle-specific protein, was used as the internal standard, and expression of Bcl-xL protein was examined. In the immunoblotting, the same experiments were repeated 10 times by using different lots of myocardial cells, and Bcl-xL immunoreaction-positive bands were analyzed by densitometry and statistical analysis was performed.
Subsequently we studied the effectiveness of ginsenoside Rb1 on heart. For that purpose, for example, changes in the expressions of Bcl-xL mRNA and Bcl-xL protein were examined with the use of RT-PCR and immunoblotting, when the primary cultured myocardial cells were cultured for 18 hours in the presence of ginsenoside Rb1. Myocardial cells were prepared as follows. The hearts of fetal rats at gestational day 17 were treated with trypsin EDTA to prepare the dispersed cells, which were cultured for several days in DMEM containing 10% FCS (fetal calf serum). In RT-PCR, β-actin mRNA was used as the internal standard. In the immunoblotting, troponin T, a striated muscle-specific protein, was used as the internal standard, and expression of Bcl-xL protein was examined. In the immunoblotting, the same experiments were repeated 10 times by using different lots of myocardial cells, and Bcl-xL immunoreaction-positive bands were analyzed by densitometry and statistical analysis was performed.
Background: Immunoblotting shows a protein as a band on a membrane.

Series [5] concerns Bcl-xL. As to the kind of experiment: Bcl-xL expression in primary cultured oligodendrocytes (RT-PCR, immunoblotting). Type of series: cell-based, rat. As for the experimental part: In order to investigate whether ginsenoside Rb1 enhances the expression of Bcl-xL in oligodendrocytes or not, for example, ginsenoside Rb1 at the concentrations from 1 fg/ml to 10 pg/ml was added to the primary cultured rat oligodendrocytes. After culture for 6 hours, total RNA was extracted and Bcl-xL mRNA was assayed by RT-PCR. β-actin mRNA was used as an internal standard of RT-PCR. Further, a part of oligodendrocytes was used as a sample for SDS electrophoresis after treatment with ginsenoside Rb1, and anti-apoptotic factor Bcl-xL in the culture well was examined by immunoblotting (Western blotting). Oligodendrocytes were isolated from the mixed brain cell culture by using the forebrain of newborn rats.
In order to investigate whether ginsenoside Rb1 enhances the expression of Bcl-xL in oligodendrocytes or not, for example, ginsenoside Rb1 at the concentration from 1 fg/ml to 10 pg/ml was added to the primary cultured rat oligodendrocytes. After culture for 6 hours, Total RNA was extracted and Bcl-xL mRNA was assayed by RT-PCR. β-actin mRNA was used as an internal standard of RT-PCR. Further, a part of oligodendrocytes was used as a sample for SDS electrophoresis after treating with ginsenoside Rb1, and the amount of anti-apoptotic factor Bcl-xL in the culture well was examined by immunoblotting (Western blotting). The mixed brain cell culture was initiated to isolate oligodendrocytes by using the forebrain of newborn rats.

The subject of series [6] is Bcl-xL mRNA. Briefly: RT-PCR of Bcl-xL mRNA in cerebral cortex after intravenous ginsenoside Rb1. Type of series: in vivo, rat. Particulars: intravenous 60 μg/day; 4th and 6th hour after MCA permanent occlusion; vs sham and saline. As for the experimental part:
The present inventors investigated whether or not intravenous administration of low doses of ginsenoside Rb1 increases expression of Bcl-xL mRNA in brain tissues. For this purpose, for example, SH-SP rats (body weight 250-300 g), at the age of 12 weeks, were used. Immediately after permanent occlusion of the MCA in SH-SP rats under inhalation anesthesia, ginsenoside Rb1 dissolved in physiological saline was infused once intravenously (60 μg), and subsequently ginsenoside Rb1 was intravenously infused continuously at the dose of 60 μg/day. Control animals with MCA permanent occlusion and sham-operated animals received the same amount of physiological saline after MCA permanent occlusion.
Group 2 consists of animals with the same experimental conditions. Sham indicates sham-operated animals; Rb1(−) indicates animals with cerebral infarction administered with physiological saline; and Rb1(+) indicates animals with cerebral infarction administered intravenously with ginsenoside Rb1. At the 4th hour or the 6th hour after the sham operation and MCA permanent occlusion, animals were anesthetized with chloral hydrate, and the left cerebral cortex (i.e. the cerebral cortex on the side of MCA permanent occlusion) was dissected out and total RNA was prepared for RT-PCR. The mRNA of β-actin was used as the internal standard. […]

Molecules are shown by their SMILES. Where two headings read alike, the source gives them in different places. A value given as a limit tells only on which side of the number the result lay.

For the compound `CC(C)=CCC[C@](C)(O[C@@H]1O[C@H](CO[C@@H]2O[C@H](CO)[C@@H](O)[C@H](O)[C@H]2O)[C@@H](O)[C@H](O)[C@H]1O)[C@H]1CC[C@]2(C)[C@@H]1[C@H](O)C[C@@H]1[C@@]3(C)CC[C@H](O[C@@H]4O[C@H](CO)[C@@H](O)[C@H](O)[C@H]4O[C@@H]4O[C@H](CO)[C@@H](O)[C@H](O)[C@H]4O)C(C)(C)[C@@H]3CC[C@]12C` [ginsenoside Rb1], in series [1] (intracerebroventricular administration after permanent MCA occlusion), the “cerebral infarction (infarcted area in the cerebral cortex)” value is on record as “significant reduction”. Further, the “secondary lesion (degeneration) of the thalamus” value in series [1] (intravenous 6 or 60 μg/day) was “significantly inhibits”. Further, in series [1] (intravenous ginsenoside Rb1 (prior applications)), the “mean ratio of cerebrocortical infarction compared with saline group” value is recorded as no more than 50%. Besides, the “cerebral vessels destroyed after MCA permanent occlusion” value in series [1] (intravenous infusion for 28 days) is “regenerated and reconstructed”. In series [1] (repetitive or continuous intravenous 6 μg or 60 μg/day), the “cerebral infarct area relative to non-administered group” value is reported as “about ¼”. The “volume/size of cerebral infarct lesion relative to saline (non-administered) group” value in series [1] (repetitive or continuous intravenous 6 or 60 μg/day for 28 days after MCA permanent occlusion (prior applications)) is “about ¼”. The “reduction of the volume of the cerebral infarct lesions vs control group” value in series [1] (repetitive or continuous intravenous low doses after permanent MCA occlusion) was roughly 75%. Also, the bleeding tendency result in series [2] is given as “does not promote”. Also, the “delayed neuronal death and learning disability” value in series [3] (intracerebroventricular infusion immediately after 3 or 3.5 minute occlusion) is “suppressed”; in series [3] (intraperitoneal 10 or 20 mg/kg once a day for one week in advance of 5-minute occlusion), “significantly prevent”. For the same compound, in series [3] (intraperitoneal 10 or 20 mg/kg/day before cerebral ischemia), the “nerve cells in the hippocampal CA1 area rescued” value is reported as “approximately 30%”. In addition, the “effect on delayed neuronal death” value in series [3] (intraperitoneal immediately after 3- or 5-minute occlusion of common carotid arteries) is “no effect”. In addition, the “expression of Bcl-xL protein in myocardial cells” value in series [4] (1 fg/ml to 10^4 fg/ml, 18 hours, n=10) is recorded as “significantly enhanced”. The “expression of Bcl-xL mRNA in myocardial cells” value in series [4] (1 fg/ml-100 fg/ml, 18 hours) is recorded as “obviously increased”. Besides, in series [4] (FIG. 25), the “concentrations increasing Bcl-xL mRNA in myocardial cells” value was 1 to 100 fg/mL. Also, the “expression of Bcl-xL mRNA in oligodendrocytes” value in series [5] (100 fg/ml, 6 hours, RT-PCR) was “obviously enhanced”. In addition, the “concentrations increasing Bcl-xL protein expression in oligodendrocytes” value in series [5] (FIG. 23) was 1 to 100 fg/mL. The “Bcl-xL protein in oligodendrocytes” value in series [5] (immunoblotting after ginsenoside Rb1 addition) was “increased”. For the same compound, the “expressions of Bcl-xL mRNA in the cerebral cortex” value in series [6] is reported as “obviously increased”.

(Values after patent publication US7235267B1, “Brain cell or nerve cell-protecting agents comprising medicinal ginseng” (priority 1999, dated 2007).)
